According to the supplement of paper PMC10627819:

Tests used:
Test in all cases: Bliss interaction score (quartile over a dose matrix) (fitness difference); higher = more antagonism (negative = synergy)
B. subtilis 168 = tested on: B. subtilis 168
Procedure, shortened: (§1)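 The Bliss score is observed fitness minus expected fitness, where the expected value is the product of single-drug fitness values inferred from combination data. Fitness is OD595 at entry into stationary phase normalised to the plate's robust no-drug mean and capped at 1. Scores are reported as quartiles spanning technical, biological and donor/recipient replicates.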

S. pneumoniae D39V = tested on: S. pneumoniae D39V
Procedure, shortened: as §1

S. aureus Newman = tested on: S. aureus Newman
Procedure, shortened: as §1

S. aureus DSM 20231 = tested on: S. aureus DSM 20231
Procedure, shortened: as §1
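Further: first quartile when negative (synergy) and third quartile when positive (antagonism).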

SMILES | Bliss interaction score (B. subtilis 168) | Bliss interaction score (S. pneumoniae D39V) | Bliss interaction score (S. aureus Newman) | Bliss interaction score (S. aureus DSM 20231) | Bliss interaction score (B. subtilis 168; main component drawn) | Bliss interaction score (S. pneumoniae D39V; main component drawn) | Bliss interaction score (S. aureus Newman; main component drawn) | Bliss interaction score (S. aureus DSM 20231; main component drawn)
O=C(O)c1cn(C2CC2)c2cc(N3CCNCC3)c(F)cc2c1=O [Ciprofloxacin] + CN[C@H](CC(C)C)C(=O)N[C@H]1C(=O)N[C@@H](CC(N)=O)C(=O)N[C@H]2C(=O)N[C@H]3C(=O)N[C@H](C(=O)N[C@H](C(=O)O)c4cc(O)cc(O)c4-c4cc3ccc4O)[C@H](O[C@H]3C[C@](C)(N)[C@@H](O)[C@H](C)O3)c3ccc(c(Cl)c3)Oc3cc2cc(c3O[C@@H]2O[C@H](CO)[C@@H](O)[C@H](O)[C@H]2O[C@H]2C[C@](C)(NCc3ccc(-c4ccc(Cl)cc4)cc3)[C@@H](O)[C@H](C)O2)Oc2ccc(cc2Cl)[C@H]1O [Oritavancin] | -0.0274 | 0.0622 | -0.0474 | -0.0468 |  |  |  | 
CN(C)[C@@H]1C(O)=C(C(N)=O)C(=O)[C@@]2(O)C(O)=C3C(=O)c4c(O)ccc(Cl)c4[C@@](C)(O)[C@H]3C[C@@H]12 [Clortetracycline] + CO[C@H]1/C=C/O[C@@]2(C)Oc3c(C)c(O)c4c(O)c(c(/C=N/N5CCN(C)CC5)c(O)c4c3C2=O)NC(=O)/C(C)=C\C=C\[C@H](C)[C@H](O)[C@@H](C)[C@@H](O)[C@@H](C)[C@H](OC(C)=O)[C@@H]1C [Rifampicin] | -0.26 | 0.0664 | 0.0541 | -0.0529 |  |  |  | 
CC(=O)Oc1ccccc1C(=O)O [Acetylsalicylicacid] + O=C(O[C@@H]1Cc2c(O)cc(O)cc2O[C@@H]1c1cc(O)c(O)c(O)c1)c1cc(O)c(O)c(O)c1 [EGCG] | 0.141 | -0.0702 | 0.0426 | 0.159 |  |  |  | 
CN(C)[C@@H]1C(O)=C(C(N)=O)C(=O)[C@@]2(O)C(O)=C3C(=O)c4c(O)ccc(Cl)c4[C@@](C)(O)[C@H]3C[C@@H]12 [Clortetracycline] + C/C(=C\C(=O)OCCCCCCCCC(=O)O)C[C@@H]1OC[C@H](C[C@@H]2O[C@H]2[C@@H](C)[C@H](C)O)[C@@H](O)[C@H]1O [Pseudomonic acid] | -0.0689 | 0.0729 | 0.0209 | 0.0276 |  |  |  | 
CC1(C)S[C@@H]2[C@H](NC(=O)Cc3ccccc3)C(=O)N2[C@H]1C(=O)O [PenicillinG] + CN(C)c1cc(NC(=O)CNC(C)(C)C)c(O)c2c1C[C@H]1C[C@H]3[C@H](N(C)C)C(O)=C(C(N)=O)C(=O)[C@@]3(O)C(O)=C1C2=O [Tigecycline] | 0.0408 | -0.103 | 0.0515 | -0.0277 |  |  |  | 
CC(=O)Oc1ccccc1C(=O)O [Acetylsalicylicacid] + CO/N=C(\C(=O)N[C@@H]1C(=O)N2C(C(=O)[O-])=C(C[N+]3(C)CCCC3)CS[C@H]12)c1csc(N)n1 [Cefepime] | 0.167 | 0.118 | 0.0506 | 0.097 |  |  |  | 
CN(C)[C@@H]1C(O)=C(C(N)=O)C(=O)[C@@]2(O)C(O)=C3C(=O)c4c(O)ccc(Cl)c4[C@@](C)(O)[C@H]3C[C@@H]12 [Clortetracycline] + C[C@H]1COc2c(N3CCN(C)CC3)c(F)cc3c(=O)c(C(=O)O)cn1c23 [Levofloxacin] | 0.035 | 0.0525 | 0.0876 | 0.115 |  |  |  | 
CN(C)[C@@H]1C(O)=C(C(N)=O)C(=O)[C@@]2(O)C(O)=C3C(=O)c4c(O)ccc(Cl)c4[C@@](C)(O)[C@H]3C[C@@H]12 [Clortetracycline] + Cc1cc(NS(=O)(=O)c2ccc(N)cc2)no1 [Sulfamethoxazol] | 0.0702 | -0.0455 | 0.0566 | -0.058 |  |  |  | 
C[C@@H]1O[C@@H]1P(=O)(O)O [Fosfomycin] + CC[C@H]1OC(=O)[C@H](C)C(=O)[C@H](C)[C@@H](O[C@@H]2O[C@H](C)C[C@H](N(C)C)[C@H]2O)[C@](C)(OC)C[C@@H](C)C(=O)[C@H](C)[C@H]2N(CCCCn3cnc(-c4cccnc4)c3)C(=O)O[C@]12C [Telithromycin] | 0.0824 | -0.0329 | -0.0576 | 0.0337 |  |  |  | 
CN(C)[C@@H]1C(O)=C(C(N)=O)C(=O)[C@@]2(O)C(O)=C3C(=O)c4c(O)ccc(Cl)c4[C@@](C)(O)[C@H]3C[C@@H]12 [Clortetracycline] + O=C1CN(/N=C/c2ccc([N+](=O)[O-])o2)C(=O)N1 [Nitrofurantoin] | -0.158 | -0.0355 | -0.0647 | 0.016 |  |  |  | 
CC(=O)Oc1ccccc1C(=O)O [Acetylsalicylicacid] + CN1C2=CC=CC=C2N=C3C1=CC=CC3=O [Pyocyanin] | -0.0887 | -0.0649 | -0.0562 | -0.0748 |  |  |  | 
N#CC(C#N)=NNc1cccc(Cl)c1 [CCCP] + CC(C1CCC(C(O1)OC2C(CC(C(C2O)OC3C(C(C(CO3)(C)O)NC)O)N)N)N)NC [Gentamicin] |  |  |  |  | 0.259 | 0.0882 | 0.116 | 0.0926
N#CC(C#N)=NNc1cccc(Cl)c1 [CCCP] + O=C(O)c1cn(C2CC2)c2cc(N3CCNCC3)c(F)cc2c1=O [Ciprofloxacin] | -0.0456 | 0.0549 | -0.0497 | -0.0358 |  |  |  | 
CN(C)[C@@H]1C(O)=C(C(N)=O)C(=O)[C@@]2(O)C(O)=C3C(=O)c4c(O)ccc(Cl)c4[C@@](C)(O)[C@H]3C[C@@H]12 [Clortetracycline] + CC(=O)NC[C@H]1CN(c2ccc(N3CCOCC3)c(F)c2)C(=O)O1 [Linezolid] | -0.259 | -0.0813 | -0.0457 | -0.0326 |  |  |  | 
CN(C)[C@@H]1C(O)=C(C(N)=O)C(=O)[C@@]2(O)C(O)=C3C(=O)c4c(O)ccc(Cl)c4[C@@](C)(O)[C@H]3C[C@@H]12 [Clortetracycline] + CC(=O)O[C@H]1C[C@@]2(C)[C@@H](C[C@@H](O)[C@H]3[C@@]4(C)CC[C@@H](O)[C@@H](C)[C@@H]4CC[C@@]32C)/C1=C(\CCC=C(C)C)C(=O)O [Fusidic acid] | -0.11 | -0.0508 | 0.0488 | 0.026 |  |  |  | 
CC(=O)Oc1ccccc1C(=O)O [Acetylsalicylicacid] + CC[C@H](C)[C@H](N)C1=N[C@H](C(=O)N[C@@H](CC(C)C)C(=O)N[C@H](CCC(=O)O)C(=O)N[C@H](C(=O)N[C@H]2CCCCNC(=O)[C@H](CC(N)=O)NC(=O)[C@@H](CC(=O)O)NC(=O)[C@H](Cc3cnc[nH]3)NC(=O)[C@@H](Cc3ccccc3)NC(=O)[C@H]([C@@H](C)CC)NC(=O)[C@@H](CCCN)NC2=O)[C@@H](C)CC)CS1 [Bacitracin] |  |  |  |  | 0.123 | 0.165 | -0.0752 | 0.0276

SMILES | Bliss interaction score (B. subtilis 168) | Bliss interaction score (S. pneumoniae D39V) | Bliss interaction score (S. aureus Newman) | Bliss interaction score (S. aureus DSM 20231) | Bliss interaction score (B. subtilis 168; main component drawn) | Bliss interaction score (S. pneumoniae D39V; main component drawn) | Bliss interaction score (S. aureus Newman; main component drawn) | Bliss interaction score (S. aureus DSM 20231; main component drawn)
C[C@H]1c2cccc(O)c2C(=O)C2=C(O)[C@]3(O)C(=O)C(C(N)=O)=C(O)[C@@H](N(C)C)[C@@H]3[C@@H](O)[C@@H]21 [Doxycycline] + CC1(C)S[C@@H]2[C@H](NC(=O)Cc3ccccc3)C(=O)N2[C@H]1C(=O)O [PenicillinG] | 0.108 | 0.106 | -0.027 | 0.0444 |  |  |  | 
N#CC(C#N)=NNc1cccc(Cl)c1 [CCCP] + CC[C@H]1OC(=O)[C@H](C)[C@@H](O[C@H]2C[C@@](C)(OC)[C@@H](O)[C@H](C)O2)[C@H](C)[C@@H](O[C@@H]2O[C@H](C)C[C@H](N(C)C)[C@H]2O)[C@](C)(OC)C[C@@H](C)C(=O)[C@H](C)[C@@H](O)[C@]1(C)O [Clarithromycin] | 0.0363 | -0.0531 | 0.0706 | -0.0461 |  |  |  | 
CC(=O)Oc1ccccc1C(=O)O [Acetylsalicylicacid] + COc1c(N2C[C@@H]3CCCN[C@@H]3C2)c(F)cc2c(=O)c(C(=O)O)cn(C3CC3)c12 [Moxifloxacin] | -0.0213 | 0.0628 | 0.114 | 0.114 |  |  |  | 
N#CC(C#N)=NNc1cccc(Cl)c1 [CCCP] + CN[C@@H]1[C@H](O[C@H]2[C@H](O[C@H]3[C@H](O)[C@@H](O)[C@H](N=C(N)N)[C@@H](O)[C@@H]3N=C(N)N)O[C@@H](C)[C@]2(O)C=O)O[C@@H](CO)[C@H](O)[C@H]1O [Streptomycin] | 0.48 | 0.0786 | 0.0563 | 0.0501 |  |  |  | 
N#CC(C#N)=NNc1cccc(Cl)c1 [CCCP] + CC(=O)NC[C@H]1CN(c2ccc(N3CCOCC3)c(F)c2)C(=O)O1 [Linezolid] | 0.0322 | 0.0853 | 0.0931 | -0.0274 |  |  |  | 
N#CC(C#N)=NNc1cccc(Cl)c1 [CCCP] + CN(N=O)C(=O)N[C@@H](C=O)[C@@H](O)[C@H](O)[C@H](O)CO [Streptozotocin] | 0.0172 | 0.0737 | -0.0707 | -0.0689 |  |  |  | 
N#CC(C#N)=NNc1cccc(Cl)c1 [CCCP] + O=C(O)[C@H]1/C(=C/CO)O[C@@H]2CC(=O)N21 [Clavulanic] | 0.0453 | 0.0476 | 0.0274 | -0.315 |  |  |  | 
CO/N=C(\C(=O)N[C@@H]1C(=O)N2C(C(=O)O)=C(COC(C)=O)CS[C@H]12)c1csc(N)n1 [Cefotaxime] + CN[C@H](CC(C)C)C(=O)N[C@H]1C(=O)N[C@@H](CC(N)=O)C(=O)N[C@H]2C(=O)N[C@H]3C(=O)N[C@H](C(=O)N[C@H](C(=O)O)c4cc(O)cc(O)c4-c4cc3ccc4O)[C@H](O[C@H]3C[C@](C)(N)[C@@H](O)[C@H](C)O3)c3ccc(c(Cl)c3)Oc3cc2cc(c3O[C@@H]2O[C@H](CO)[C@@H](O)[C@H](O)[C@H]2O[C@H]2C[C@](C)(NCc3ccc(-c4ccc(Cl)cc4)cc3)[C@@H](O)[C@H](C)O2)Oc2ccc(cc2Cl)[C@H]1O [Oritavancin] | 0.0516 | -0.106 | 0.0965 | 0.0947 |  |  |  | 
Cc1ncc([N+](=O)[O-])n1CCO [Metronidazole] + Oc1cc(Cl)ccc1Oc1ccc(Cl)cc1Cl [Triclosan] | 0.0396 | 0.0696 | 0.0457 | 0.0778 |  |  |  | 
CN(C)[C@@H]1C(O)=C(C(N)=O)C(=O)[C@@]2(O)C(O)=C3C(=O)c4c(O)ccc(Cl)c4[C@@](C)(O)[C@H]3C[C@@H]12 [Clortetracycline] + CCN(CC)CCOC(=O)c1ccc(N)cc1 [Procaine] | 0.0759 | -0.0498 | 0.0501 | -0.0714 |  |  |  | 
CO/N=C(\C(=O)N[C@@H]1C(=O)N2C(C(=O)O)=C(COC(C)=O)CS[C@H]12)c1csc(N)n1 [Cefotaxime] + CC[C@H]1OC(=O)[C@H](C)[C@@H](O[C@H]2C[C@@](C)(OC)[C@@H](O)[C@H](C)O2)[C@H](C)[C@@H](O[C@@H]2O[C@H](C)C[C@H](N(C)C)[C@H]2O)[C@](C)(O)C[C@@H](C)C(=O)[C@H](C)[C@@H](O)[C@]1(C)O [Erythromycin] | 0.0702 | 0.0515 | -0.0525 | 0.016 |  |  |  | 
CO/N=C(\C(=O)N[C@@H]1C(=O)N2C(C(=O)O)=C(COC(C)=O)CS[C@H]12)c1csc(N)n1 [Cefotaxime] + Oc1cc(Cl)ccc1Oc1ccc(Cl)cc1Cl [Triclosan] | 0.0558 | -0.0421 | 0.033 | 0.0696 |  |  |  | 
O=C(O)c1cn(C2CC2)c2cc(N3CCNCC3)c(F)cc2c1=O [Ciprofloxacin] + CC[C@H]1OC(=O)[C@H](C)C(=O)[C@H](C)[C@@H](O[C@@H]2O[C@H](C)C[C@H](N(C)C)[C@H]2O)[C@](C)(OC)C[C@@H](C)C(=O)[C@H](C)[C@H]2N(CCCCn3cnc(-c4cccnc4)c3)C(=O)O[C@]12C [Telithromycin] | 0.149 | 0.0763 | 0.0334 | 0.0454 |  |  |  | 
CC(=O)Oc1ccccc1C(=O)O [Acetylsalicylicacid] + CC1(C)S[C@@H]2[C@H](NC(=O)Cc3ccccc3)C(=O)N2[C@H]1C(=O)O [PenicillinG] | 0.117 | -0.0595 | 0.0702 | 0.101 |  |  |  | 
CC(=O)Oc1ccccc1C(=O)O [Acetylsalicylicacid] + CN[C@@H]1[C@H](O)[C@H](NC)[C@H]2O[C@@]3(O)C(=O)C[C@@H](C)O[C@H]3O[C@@H]2[C@H]1O [Spectinomycin] | 0.137 | -0.0679 | 0.0859 | -0.0696 |  |  |  | 
N#CC(C#N)=NNc1cccc(Cl)c1 [CCCP] + COc1cc(Cc2cnc(N)nc2N)cc(OC)c1OC [Trimethoprim] | 0.0605 | 0.183 | -0.0599 | 0.0495 |  |  |  | 
